Measured values as given in patent US11078193B2 (priority 2014, dated 2021).

Experiments:
[1] = Cytotoxicity, HepG2 cells, Resazurin assay; type: cell-based; settings: human
[2] = ATP based toxicity assay (ATPlite), HepG2 cell line; settings: human, HepG2 cells, ATPlite (ATP levels)
Summary of the method: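 HepG2 cells exposed to compound, then ATPlite reagent added at 1 volume. Cellular ATP read by luminescence as a viability measure.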

HBV [3] = test: anti-HBV activity, HepG2.2.15 stable transfected cell line, HBV DNA from secreted virions by realtime PCR; type: cell-based; settings: Hepatitis B virus, 144 h, HepG2.2.15 cells, 6 days of treatment
HBV [4] = test: anti HBV activity, HepG2.117 inducibly HBV producing cell line (Tet-off), intracellular HBV DNA by realtime PCR; type: cell-based; settings: Hepatitis B virus, 72 h, HepG2.117 cells, 3 days of treatment

Structure (SMILES): C[C@@H](NS(=O)(=O)c1cn(C)c(C(=O)Nc2ccnc(Cl)c2)c1Cl)C(F)(F)F [Compound 12, 3-Chloro-N-(2-chloropyridin-4-yl)-1-methyl-4-{[(1R)-2,2,2-trifluoro-1-methylethyl]sulfamoyl}-1H-pyrrole-2-carboxamide]
- CC50 at 4 days [1]: > 25000 nM
- CC50 at 4 days [2]: > 25000 nM
- EC50 (HBV [3]): 10 nM
- melting point: 214.8 °C
- EC50 (HBV [4]): 20 nM
